In patent US9278968B2, “Imidazopyridine compounds” (ASTELLAS PHARMA INC., priority 2012, dated 2016):

Experiments:
[1] = target: human purified sGC (heterodimer of sGCα1 and sGCβ1) (Homo sapiens (Human), UniProt Q02108+Q02153); assay: sGC activation test (cGMP produced, HTRF); type: biochemical; settings: for EC50: maximum activity of Preparation Example 200 compound (maximum 100 μM) taken as 100%, with SNP, read-out: EC50 (concentration giving 50% of maximum activity)
Method: The activity of sGC was evaluated by measuring the amount of cGMP produced by human purified sGC.
Using an sGCα 1 gene (NCBI accession No. BC028384.2) and an sGCβ1 gene (NCBI accession No. BC047620.1), an N-terminal FLAG tag-fused sGCα1 and an sGCβ1 expression baculovirus were prepared. These viruses were transfected into insect cells Sf9 (Cat. No. 11496-015, Gibco) to express a protein. From the cell lysates of the insect cells, heterodimers of the N-terminal FLAG tag-fused sGCα1 and sGCβ1 were purified with an M2 Affinity Gel (Sigma-Aldrich, Inc.) to obtain a human sGC.
An Example compound was dissolved in DMSO and diluted 20-fold with ultrapure water. 2 μL of the diluted Example compound solution (maximum concentration of 100 μM), 2 μL of a substrate solution [0.5 μM triethanolamine buffer solution, 0.03 μM dithiothreitol, 0.01 μM GTP, 0.04 μM MgCl2, and 0.03 μM sodium nitroprusside (SNP)], and 6 μL of a human enzyme suspension were added to 384-well plates (manufactured by Greiner Bio-One), and incubated at room temperature for one hour. The measurement of the amount of cGMP was carried out, using an HTRF reagent (Cisbio).
The sGC activation action of the Example compound was calculated as an Example compound concentration which gives 50% of a maximum activity (EC50), in which the maximum activity by the addition of a compound shown in Preparation Example 200, 8-(cyclohexylmethoxy)-N-[(1R)-2-hydroxy-1-phenylethyl]-2-methylimidazo[1,2-a]pyridine-3-carboxamide hydrochloride (maximum 100 μM), is taken as 100%. Further, the maximum activity of sGC with the addition of 8-(cyclohexylmethoxy)-N-[(1R)-2-hydroxy-1-phenylethyl]-2-methylimidazo[1,2-a]pyridine-3-carboxamide hydrochloride is 10-fold or more relative to the sGC activation without the addition of the compound, and it is recognized that the compound has a good sGC activating action. […] The test results of some Example compounds that are the compounds of the formula (I) of the present invention are shown below. Further, in Tables, Ex. represents Example number.

[2] = tested on: hind limb blood flow in rats anesthetized with pentobarbital; assay: Blood flow increasing action in vivo (hind limb blood flow, anesthetized rats); set-up: species or system Wistar male rats; settings: oral, 2 hours after administration, effective when blood flow rate 130% or more of solvent group
Method: The hind limb blood flow increasing action in rats anesthetized with pentobarbital was confirmed by the following test method.
Wistar male rats, 11- to 14-week (Japan SLC, Inc.) were used. An administration liquid was prepared by adding N,N-dimethyl formamide, Polyethylene Glycol 400, TWEEN 80, a 0.5% methyl cellulose aqueous solution, a 0.5 M aqueous sodium hydrogen carbonate solution, and 0.1 M hydrochloric acid to the test compound and dissolving the Example compound in an appropriate manner depending on the compound. The prepared administration liquid was orally administered, and 2 hours later, the hind limb blood flow increasing action was evaluated under anesthesia with intraperitoneally administration of 60 mg/kg of pentobarbital The hind limb blood flow was measured using a laser blood flow imaging device (PIM II Integral). By taking the average blood flow rate of a group with the administration of a solvent as 100%, the compound was evaluated to be effective when the blood flow rate was 130% or more by the administration of the compound.

Chain of human purified sGC (heterodimer of sGCα1 and sGCβ1) (Q02108 whole entry): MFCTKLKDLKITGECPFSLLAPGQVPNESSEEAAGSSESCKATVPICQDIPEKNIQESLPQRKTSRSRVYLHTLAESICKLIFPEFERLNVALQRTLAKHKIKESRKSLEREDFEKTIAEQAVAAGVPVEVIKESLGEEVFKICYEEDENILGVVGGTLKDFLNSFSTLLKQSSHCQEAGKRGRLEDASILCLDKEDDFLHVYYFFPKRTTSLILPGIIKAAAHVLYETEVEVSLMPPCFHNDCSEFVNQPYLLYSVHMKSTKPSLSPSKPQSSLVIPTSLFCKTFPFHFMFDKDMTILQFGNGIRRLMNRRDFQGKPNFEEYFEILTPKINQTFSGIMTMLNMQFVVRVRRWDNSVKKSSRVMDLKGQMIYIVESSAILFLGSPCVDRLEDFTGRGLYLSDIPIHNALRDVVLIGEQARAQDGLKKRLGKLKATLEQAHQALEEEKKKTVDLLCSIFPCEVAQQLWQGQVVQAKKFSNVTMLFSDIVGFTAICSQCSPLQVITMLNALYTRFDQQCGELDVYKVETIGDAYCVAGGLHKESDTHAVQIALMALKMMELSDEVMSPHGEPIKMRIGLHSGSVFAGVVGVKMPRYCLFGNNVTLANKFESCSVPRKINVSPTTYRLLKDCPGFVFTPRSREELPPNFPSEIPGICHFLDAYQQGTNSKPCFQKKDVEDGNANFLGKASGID
Chain of human purified sGC (heterodimer of sGCα1 and sGCβ1) (Q02153 whole entry): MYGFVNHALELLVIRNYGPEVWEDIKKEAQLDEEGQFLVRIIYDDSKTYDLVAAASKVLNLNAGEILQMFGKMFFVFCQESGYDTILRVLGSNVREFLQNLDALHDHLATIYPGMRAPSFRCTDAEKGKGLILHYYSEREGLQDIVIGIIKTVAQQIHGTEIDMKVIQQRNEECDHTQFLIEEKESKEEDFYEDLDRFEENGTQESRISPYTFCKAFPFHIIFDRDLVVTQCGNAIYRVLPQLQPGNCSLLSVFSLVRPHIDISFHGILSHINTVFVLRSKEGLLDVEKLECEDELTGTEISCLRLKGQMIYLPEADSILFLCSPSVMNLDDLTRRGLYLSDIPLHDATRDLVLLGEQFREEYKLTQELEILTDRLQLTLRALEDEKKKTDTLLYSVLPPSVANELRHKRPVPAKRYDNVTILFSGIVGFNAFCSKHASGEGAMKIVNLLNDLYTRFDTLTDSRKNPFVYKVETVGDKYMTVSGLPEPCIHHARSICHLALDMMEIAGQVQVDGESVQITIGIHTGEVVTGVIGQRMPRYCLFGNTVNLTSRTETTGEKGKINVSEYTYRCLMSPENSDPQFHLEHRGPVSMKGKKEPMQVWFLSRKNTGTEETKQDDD

Structure (SMILES) | EC50 [1] [µM] | further results
Cc1nc2c(OCc3c(F)cccc3F)cccn2c1C(=O)N[C@@](C)(CO)c1ccc(CO)cc1 (stereo in doubt) [Example 107a, 8-[(2,6-difluorobenzyl)oxy]-N-{1-hydroxy-2-[4-(hydroxymethyl)phenyl]propan-2-yl}-2-methylimidazo[1,2-a]pyridine-3-carboxamide] | 1.5 | hind limb blood flow increasing action ([2]; 3 mg/kg): exhibited a blood flow increasing action
Cc1nc2c(OCc3c(F)cccc3F)cccn2c1C(=O)N[C@@](C)(CO)c1nnn(C)n1 (stereo in doubt) [Example 108a, 8-[(2,6-difluorobenzyl)oxy]-N-[1-hydroxy-2-(2-methyl-2H-tetrazol-5-yl)propan-2-yl]-2-methylimidazo[1,2-a]pyridine-3-carboxamide] | 4.6 | hind limb blood flow increasing action ([2]; 0.3 mg/kg): exhibited a blood flow increasing action
CCc1nnc(C(C)(CO)NC(=O)c2c(C)nc3c(OCc4c(F)cccc4F)cccn23)o1 (stereo not drawn) [Example 1, 8-[(2,6-difluorobenzyl)oxy]-N-[2-(5-ethyl-1,3,4-oxadiazol-2-yl)-1-hydroxypropan-2-yl]-2-methylimidazo[1,2-a]pyridine-3-carboxamide] | 5.5 | hind limb blood flow increasing action ([2]; 1 mg/kg): exhibited a blood flow increasing action
Cc1nc2c(OCc3c(F)cccc3F)cccn2c1C(=O)NC(C)(CO)c1nnn(C(F)F)n1 (stereo not drawn) [Example 6, 8-[(2,6-difluorobenzyl)oxy]-N-{2-[2-(difluoromethyl)-2H-tetrazol-5-yl]-1-hydroxypropan-2-yl}-2-methylimidazo[1,2-a]pyridine-3-carboxamide] | 1.7 | hind limb blood flow increasing action ([2]; 0.1 mg/kg): exhibited a blood flow increasing action
Cc1nc2c(OCC3CCCCC3)cccn2c1C(=O)NC(CO)(CO)c1nnc(C2CC2)o1 [Example 100] | 20 | 
CCn1cc(C(CO)(CO)NC(=O)c2c(C)nc3c(OCc4c(F)cccc4F)cccn23)cn1 [Example 101] | 26 | 
Cc1nc2c(OCC3CCCCC3)cccn2c1C(=O)N[C@@](C)(CO)c1cccc(-c2nnn(C)n2)c1 [Example 102] | 2.6 | 
Cc1nc2c(OCc3c(F)cccc3F)cccn2c1C(=O)NC(C)(CO)c1nnn(CC2CC2)n1 (stereo not drawn) [Example 103] | 6.1 | 
Cc1nc2c(OCC3CCCCC3)cccn2c1C(=O)NC(C)(CO)c1nnn(CCO)n1 (stereo not drawn) [Example 104] | 7.5 | 
Cc1nc2c(OCc3c(F)cccc3F)cccn2c1C(=O)NC(C)(CO)c1nnn(CC(C)(C)O)n1 (stereo not drawn) [Example 105, 8-[(2,6-difluorobenzyl)oxy]-N-{1-hydroxy-2-[2-(2-hydroxy-2-methylpropyl)-2H-tetrazol-5-yl]propan-2-yl}-2-methylimidazo[1,2-a]pyridine-3-carboxamide] | 11 | 
Cc1nc2c(OCc3c(F)cccc3F)cccn2c1C(=O)NC(C)(CO)c1nnn(CC(C)O)n1 (stereo not drawn) [Example 106] | 9.1 | 
Cc1nn(C)cc1C(CO)(CO)NC(=O)c1c(C)nc2c(OCc3c(F)cccc3F)cccn12 [Example 109] | 23 | 
Cc1nc2c(OCc3c(F)cccc3F)cccn2c1C(=O)N[C@@H](CO)c1nnn(C(C)C)n1 [Example 110] | 12 | 
Cc1nc2c(OCC3CCCCC3)cccn2c1C(=O)N[C@@](C)(CO)c1cccc(-c2nn[nH]n2)c1 [Example 111] | 0.56 | 
Cc1nc2c(OCC3CCCCC3)cccn2c1C(=O)N[C@@H](CO)c1ccccc1.Cl [Preparation Example 200, 8-(cyclohexylmethoxy)-N-[(1R)-2-hydroxy-1-phenylethyl]-2-methylimidazo[1,2-a]pyridine-3-carboxamide hydrochloride, reference compound] |  | maximum activity of sGC relative to sGC activation without the addition of the compound ([1]; maximum 100 μM): ≥ 10 fold
OCc1ccc(-c2nn(Cc3ccccc3)c3ccccc23)o1 [YC-1, [5-(1-benzyl-1H-indazol-3-yl)-2-furyl]methanol, reference compound] | 50 | maximum activity relative to maximum activity of Preparation Example 200 compound ([1]; maximum activity of Preparation Example 200 compound = 100%): 52%
